US9200001B2, “Triazolyl PDE10 inhibitors” (Merck Sharp & Dohme Corp., priority 2011, dated 2015)

molecular target: human PDE10A2 (Homo sapiens (Human), UniProt Q9Y233); test: PDE10 fluorescence polarization (IMAP FP) inhibition assay; format: biochemical; details: FAM-labeled cAMP 50 nM, room temperature, read-out: PDE10a Ki
Method: The activity of the compounds in accordance with the present invention as PDE10 inhibitors may be readily determined without undue experimentation using a fluorescence polarization (FP) methodology that is well known in the art (Huang, W., et al., J. Biomol Screen, 2002, 7: 215).
In a typical experiment the PDE10 inhibitory activity of the compounds of the present invention was determined in accordance with the following experimental method. PDE10A2 was amplified from human fetal brain cDNA (Clontech, Mountain View, Calif.) using a forward primer corresponding to nucleotides 56-77 of human PDE10A2 (Accession No. AF127480, Genbank Identifier 4894716), containing a Kozak consensus sequence, and a reverse primer corresponding to nucleotides 2406-2413 of human PDE10A2 (Accession No. AF127480, Genbank Identifier 4894716). Amplification with Easy-A polymerase (Stratagene, La Jolla, Calif.) was 95° C. for 2 minutes followed by thirty three cycles of 95° C. for 40 seconds, 55° C. for 30 seconds, and 72° C. for 2 minutes 48 seconds. Final extension was 72° C. for 7 minutes. The PCR product was TA cloned into pcDNA3.2-TOPO (Invitrogen, Carlsbad, Calif.) according to standard protocol. AD293 cells with 70-80% confluency were transiently transfected with human PDE10A2/pcDNA3.2-TOPO using Lipofectamine 2000 according to manufacturer specifications (Invitrogen, Carlsbad, Calif.). Cells were harvested 48 hours post-transfection and lysed by sonication (setting 3, 10×5 sec pulses) in a buffer containing 20 mM HEPES, 1 mM EDTA and protease inhibitor cocktail (Roche). Lysate was collected by centrifugation at 75,000×g for 20 minutes. Supernatant containing the cytoplasmic fraction was used for evaluation of PDE10A2 activity. The fluorescence polarization assay for cyclic nucleotide phosphodiesterases was performed using an IMAP® FP kit supplied by Molecular Devices, Sunnyvale, Calif. (product # R8139). IMAP® technology has been applied previously to phosphodiesterase assays (Huang, W., et al., J. Biomol Screen, 2002, 7: 215). Assays were performed at room temperature in 384-well microtiter plates with an incubation volume of 20.2 μL. Solutions of test compounds were prepared in DMSO and serially diluted with DMSO to yield 8 μL of each of 10 solutions differing by 3-fold in concentration, at 32 serial dilutions per plate. 100% inhibition is determined using a known PDE10 inhibitor, which can be any compound that is present at 5,000 times its Ki value in the assay described as follows, such as papaverine (see Siuciak, et al. Neuropharmacology (2006) 51:386-396; Becker, et al. Behav Brain Res (2008) 186(2):155-60; Threlfell, et al., J Pharmacol Exp Ther (2009) 328(3):785-795), 2-{4-[pyridin-4-yl-1-(2,2,2-trifluoroethyl)-1H-pyrazol-3-yl]phenoxymethyl}quinoline succinic acid or 2-[4-(1-methyl-4-pyridin-4-yl-1H-pyrazol-3-yl)-phenoxymethyl]quinoline succinic acid (see Schmidt, et al. J Pharmacol Exp Ther (2008) 325:681-690; Threlfall, et al., J Pharmacol Exp Ther (2009) 328(3): 785-795). 0% of inhibition is determined by using DMSO (1% final concentrations).
A Labcyte Echo 555 (Labcyte, Sunnyvale, Calif.) is used to dispense 200 nL from each well of the titration plate to the 384 well assay plate. A solution of enzyme (1/1600 dilution from aliquots; sufficient to produce 20% substrate conversion) and a separate solution of FAM-labeled cAMP PDE from Molecular Devices (product # R7506), at a final concentration of 50 nM are made in the assay buffer (10 mM Tris HCl, pH 7.2, 10 mM MgCl2, 0.05% NaN3 0.01% Tween-20, and 1 mM DTT). The enzyme and the substrate are then added to the assay plates in two consecutive additions of 10 μL, and then shaken to mix. The reaction is allowed to proceed at room temperature for 30 minutes. A binding solution is then made from the kit components, comprised of 80% Solution A, 20% Solution B and binding reagent at a volume of 1600 the total binding solution. […]

human PDE10A2, sequence (Q9Y233 267-1055): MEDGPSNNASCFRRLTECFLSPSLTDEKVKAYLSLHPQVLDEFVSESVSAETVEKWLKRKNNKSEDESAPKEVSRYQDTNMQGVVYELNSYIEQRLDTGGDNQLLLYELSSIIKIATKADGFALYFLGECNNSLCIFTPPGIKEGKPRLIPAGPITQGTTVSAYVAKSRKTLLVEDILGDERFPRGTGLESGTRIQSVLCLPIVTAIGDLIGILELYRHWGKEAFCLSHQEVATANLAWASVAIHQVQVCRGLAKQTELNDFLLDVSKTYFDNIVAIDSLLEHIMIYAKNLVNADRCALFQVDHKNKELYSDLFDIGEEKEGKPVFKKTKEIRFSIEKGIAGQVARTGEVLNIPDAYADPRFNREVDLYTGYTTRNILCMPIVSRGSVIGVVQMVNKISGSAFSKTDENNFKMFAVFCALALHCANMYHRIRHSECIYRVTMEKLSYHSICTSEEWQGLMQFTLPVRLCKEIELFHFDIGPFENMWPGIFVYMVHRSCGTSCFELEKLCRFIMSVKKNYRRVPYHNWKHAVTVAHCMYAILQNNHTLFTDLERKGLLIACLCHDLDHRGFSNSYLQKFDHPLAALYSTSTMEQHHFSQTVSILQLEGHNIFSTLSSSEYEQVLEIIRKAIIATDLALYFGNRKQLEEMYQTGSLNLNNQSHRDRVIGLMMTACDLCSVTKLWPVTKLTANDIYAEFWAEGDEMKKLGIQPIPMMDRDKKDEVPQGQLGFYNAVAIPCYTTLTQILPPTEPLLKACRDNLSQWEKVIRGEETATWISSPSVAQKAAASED

Ki	SMILES
18.3 nM	Cc1nc([C@@H]2C[C@H]2c2nc3ccccc3n2Cc2ccncc2)cc(-n2nc(C)nc2C)n1 (stereo in doubt) [Cpd 76, 2-{2-[6-(3,5-dimethyl-1H-1,2,4-triazol-1-yl)-2-methylpyrimidin-4-yl]cyclopropyl}-1-(pyridin-4-ylmethyl)-1H-benzimidazole]
19 nM	Cc1nc(C)n(-c2cc([C@@H]3C[C@H]3c3nc4ccccc4n3C)nc(O)n2)n1 (relative stereo) [Cpd 125, trans-4-(3,5-dimethyl-1H-1,2,4-triazol-1-yl)-6-[2-(1-methyl-1H-benzimidazol-2-yl)cyclopropyl]pyrimidin-2-ol]
2.6 nM	Cc1nc([C@@H]2C[C@H]2c2nc3ccccc3[nH]2)cc(-n2nc(C)nc2C)n1 [Cpd 89, 2-{(1R,2R)-2-[6-(3,5-dimethyl-1H-1,2,4-triazol-1-yl)-2-methylpyrimidin-4-yl]cyclopropyl}-1H-benzimidazole]
0.085 nM	Cc1nc(C)n(-c2cc([C@@H]3C[C@H]3c3nc4ccccc4n3C)nc(C#N)n2)n1 [Cpd 61, 4-(3,5-dimethyl-1H-1,2,4-triazol-1-yl)-6-[(1R,2R)-2-(1-methyl-1H-benzimidazol-2-yl)cyclopropyl]primidine-2-carbonitrile]
1.09 nM	Cc1nc(C)n(-c2cc([C@@H]3C[C@H]3c3nc4ccccc4n3C)nc(OCCO)n2)n1 [Cpd 64, 2-({4-(3,5-dimethyl-1H-1,2,4-triazol-1-yl)-6-[(1R,2R)-2-(1-methyl-1H-benzimidazol-2-yl)cyclopropyl]pyrimidin-2-yl}oxy)ethanol]
1.3 nM	Cc1nc(C)n(-c2cc([C@@H]3C[C@H]3c3nc4ccccc4n3C)nc(OCC3CCO3)n2)n1 (stereo partly drawn) [Cpd 138, 2-((1R,2R)-2-(6-(3,5-dimethyl-1H-1,2,4-triazol-1-yl)-2-(oxetan-2-ylmethoxy)pyrimidin-4-yl)cyclopropyl)-1-methyl-1H-benzo[d]imidazole]
0.68 nM	Cc1nc(C)n(-c2cc([C@H]3C[C@@H]3c3nc4ccccc4n3C)nc(C3CC3)n2)n1 (relative stereo) [Cpd 112, trans-2-{2-[2-cyclopropyl-6-(3,5-dimethyl-1H-1,2,4-triazol-1-yl)pyrimidin-4-yl]cyclopropyl}-1-methyl-1H-benzimidazole]
0.4 nM	CCc1nc(C)nn1-c1cc([C@@H]2C[C@H]2c2nc3ccccc3n2C)nc(C)n1 [Cpd 92, 2-{(1R,2R)-2-[6-(5-ethyl-3-methyl-1H-1,2,4-triazol-1-yl)-2-methylpyrimidin-4-yl]cyclopropyl}-1-methyl-1H-benzimidazole]
13.8 nM	Cc1nc([C@@H]2C[C@H]2c2nc3ccccc3n2C)cc(-n2nc(C)nc2C(C)(C)C)n1 [Cpd 100, 2-{(1R,2R)-2-[6-(5-tert-butyl-3-methyl-1H-1,2,4-triazol-1-yl)-2-methylpyrimidin-4-yl]cyclopropyl}-1-methyl-1H-benzimidazole]
13.1 nM	Cc1nc([C@@H]2C[C@H]2c2nc3ccccc3n2Cc2ccccn2)cc(-n2nc(C)nc2C)n1 (stereo in doubt) [Cpd 73, 2-{2-[6-(3,5-dimethyl-1H-1,2,4-triazol-1-yl)-2-methylpyrimidin-4-yl]cyclopropyl}-1-(pyridin-2-ylmethyl)-1H-benzimidazole]
6 nM	Cc1nc([C@@H]2C[C@H]2c2ccc3ccccc3n2)cc(-n2nc(C)nc2C)n1 (relative stereo) [Cpd 127, trans-2-{2-[6-(3,5-dimethyl-1H-1,2,4-triazol-1-yl)-2-methylpyrimidin-4-yl]cyclopropyl}quinoline]
14.2 nM	Cc1nc([C@@H]2C[C@H]2c2nc3ccccc3n2CCN(C)C)cc(-n2nc(C)nc2C)n1 (stereo in doubt) [Cpd 72, 2-(2-{2-[6-(3,5-dimethyl-1H-1,2,4-triazol-1-yl)-2-methylpyrimidin-4-yl]cyclopropyl}-1H-benzimidazol-1-yl)-N,N-dimethylethanamine]
0.96 nM	CCc1nc(C)nn1-c1cc([C@H]2C[C@@H]2c2nc3ccccc3n2C)nc(C)n1 (stereo in doubt) [Cpd 83, 2-{2-[6-(5-ethyl-3-methyl-1H-1,2,4-triazol-1-yl)-2-methylpyrimidin-4-yl]cyclopropyl}-1-methyl-1H-benzimidazole]

Continued, molecule first:

SMILES	Ki
COc1ccc(Cc2nc(C)nn2-c2cc([C@H]3C[C@H]3c3ccc4ncccc4n3)nc(C)n2)cc1OC (relative stereo) [Cpd 34, Cis-2-(2-(6-(5-(3,4-dimethoxybenzyl)-3-methyl-1H-1,2,4-triazol-1-yl)-2-methylpyrimidin-4-yl)cyclopropyl)-1,5-naphthyridine]	0.068 nM
Cc1nc(C)n(-c2cc([C@@H]3C[C@H]3c3nc4ccccc4n3C)nc(N3CCC[C@H]3C)n2)n1 [Cpd 133, 2-((1R,2R)-2-(6-(3,5-dimethyl-1H-1,2,4-triazol-1-yl)-2-((R)-2-methylpyrrolidin-1-yl)pyrimidin-4-yl)cyclopropyl)-1-methyl-1H-benzo[d]imidazole]	0.37 nM
Cc1cc([C@H]2C[C@@H]2c2nc3ccccc3n2C)cc(-n2nc(C)nc2C)n1 (relative stereo) [Cpd 110, trans-2-{2-[2-(3,5-dimethyl-1H-1,2,4-triazol-1-yl)-6-methylpyridin-4-yl]cyclopropyl}-1-methyl-1H-benzimidazole]	18.4 nM
Cc1nc(C)n(-c2cc([C@@H]3C[C@H]3c3nc4ccccc4n3C)nc(OC3CCC3)n2)n1 [Cpd 136, 2-((1R,2R)-2-(2-cyclobutoxy-6-(3,5-dimethyl-1H-1,2,4-triazol-1-yl)pyrimidin-4-yl)cyclopropyl)-1-methyl-1H-benzo[d]imidazole]	0.42 nM
COc1ccc(Cc2nc(C)nn2-c2cc([C@H]3C[C@@H]3c3nc4ccccc4[nH]3)nc(C)n2)cc1OC [Cpd 25, 2-((1S,2S)-2-(6-(5-(3,4-dimethoxybenzyl)-3-methyl-1H-1,2,4-triazol-1-yl)-2-methylpyrimidin-4-yl)cyclopropyl)-1H-benzo[d]imidazole]	0.027 nM
Cc1nc([C@H]2C[C@@H]2c2nnc(-c3ccn(C)n3)s2)cc(-n2nc(C)nc2C)n1 [Cpd 105, 4-(3,5-dimethyl-1H-1,2,4-triazol-1-yl)-2-methyl-6-{(1S,2S)-2-[5-(1-methyl-1H-pyrazol-3-yl)-1,3,4-thiadiazol-2-yl]cyclopropyl}pyrimidine]	> 75 nM
Cc1nc(C)n(-c2cc([C@H]3C[C@@H]3c3nc4ccccc4n3C)cnn2)n1 (relative stereo) [Cpd 128, trans-2-{2-[6-(3,5-dimethyl-1H-1,2,4-triazol-1-yl)pyridazin-4-yl]cyclopropyl}-1-methyl-1H-benzimidazole]	38 nM
COc1ncc(Cc2nc(C)nn2-c2cc(CCc3ccc4ccccc4n3)nc(C)n2)nc1OC [Cpd 15, 2-(2-(6-(5-((5,6-dimethoxypyrazin-2-yl)methyl)-3-methyl-1H-1,2,4-triazol-1-yl)-2-methylpyrimidin-4-yl)ethyl)quinoline]	0.056 nM
Cc1nc(C2CC2c2nc3ccc(Cl)cc3[nH]2)cc(-n2nc(C)nc2C)n1 (centres unmarked) [Cpd 57, 6-chloro-2-(2-(6-(3,5-dimethyl-1H-1,2,4-triazol-1-yl)-2-methylpyrimidin-4-yl)cyclopropyl)-1H-benzo[d]imidazole]	30.7 nM
COC[C@H](C)Oc1nc([C@@H]2C[C@H]2c2nc3ccccc3n2C)cc(-n2nc(C)nc2C)n1 [Cpd 67, 2-[(1R,2R)-2-{6-(3,5-dimethyl-1H-1,2,4-triazol-1-yl)-2-[(1S)-2-methoxy-1-methylethoxy]pyrimidin-4-yl]cyclopropyl}-1-methyl-1H-benzimidazole]	0.9 nM
